From US20090099167A1, “Organic compounds” (Novartis Institutes for Biomedical Research, priority 2004, published 2009)

Experiments:
Type in all cases: biochemical
[1] = molecular target: c-Src kinase (Homo sapiens, UniProt P12931); assay: c-Src kinase inhibition; settings: Table 5; read-out: c-scr, IC50 class
Excerpt: An appropriate assay is described in Andrejauskas-Buchdunger et al., Cancer Res. 52, 5353-8 (1992).

[2] = molecular target: T1, c-Abl kinase (Homo sapiens, UniProt P00519); assay: c-Abl protein-tyrosine kinase filter binding assay; settings: Table 5; read-out: C-abl, IC50 class
T1 construct: The His-tagged kinase domain of c-Abl is cloned and expressed in the baculovirus/Sf9 system; His; made in house; host or cells: Sf9 (baculovirus)
T1 sequence (P00519 242-493 limits assumed): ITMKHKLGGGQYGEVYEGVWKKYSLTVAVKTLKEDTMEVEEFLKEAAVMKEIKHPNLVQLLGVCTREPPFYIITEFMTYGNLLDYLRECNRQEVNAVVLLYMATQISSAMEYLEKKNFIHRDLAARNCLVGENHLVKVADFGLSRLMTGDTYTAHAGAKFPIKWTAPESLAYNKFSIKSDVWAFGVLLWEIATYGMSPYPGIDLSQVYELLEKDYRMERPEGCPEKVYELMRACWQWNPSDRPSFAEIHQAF
Outline: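 His-tagged c-Abl kinase domain (37 kD, Sf9-expressed) with 30 μg/mL poly-AEKY and [γ-33P]-ATP (5 μM ATP) in 20 mM Tris.HCl pH 7.5, 10 mM MgCl2, 10 μM Na3VO4, 1 mM DTT, 1% DMSO. EDTA-stopped reactions captured on PVDF membranes, washed with 0.5% H3PO4, and scintillation-counted.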

[3] = molecular target: T2, human IGF-IR (Homo sapiens, UniProt P08069); assay: IGF-1R tyrosine kinase assay, GST-IGF-1R; settings: Table 5; read-out: IGF-1R, IC50 class
T2 construct: expresses the amino acid region 950-1337 of the mature peptide cytoplasmic domain of the human IGF-IR; made in house; host or cells: baculovirus (Bac-to-Bac)
T2 sequence (P08069 980-1367): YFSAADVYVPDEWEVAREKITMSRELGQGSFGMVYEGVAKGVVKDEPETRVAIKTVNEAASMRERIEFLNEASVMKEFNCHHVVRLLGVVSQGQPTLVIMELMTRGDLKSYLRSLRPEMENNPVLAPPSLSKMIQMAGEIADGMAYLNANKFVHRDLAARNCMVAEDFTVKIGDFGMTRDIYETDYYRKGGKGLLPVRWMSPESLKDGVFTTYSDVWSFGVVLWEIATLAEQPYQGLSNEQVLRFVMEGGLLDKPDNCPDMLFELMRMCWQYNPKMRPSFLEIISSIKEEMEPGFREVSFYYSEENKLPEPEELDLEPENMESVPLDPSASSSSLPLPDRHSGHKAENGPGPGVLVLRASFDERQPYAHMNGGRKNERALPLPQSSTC
Excerpt: The inhibition of IGF-1R and Ins-R can be determined as follows: The baculovirus donor vector pfbgx3IGFIRcd is used to generate a recombinant baculovirus that expresses the amino acid region 950-1337 of the mature peptide cytoplasmic domain of the human IGF-IR. To generate the cDNA fragment encoding the amino acid region 919-1343 of the intra-cytoplasmic kinase domain of the human insulin receptor, pC5hInsR is used. The fragments of the human IGF-IR and Ins-R are cloned, expressed and small-scale purified as a factor Xa-cleavable glutathione-S-transferase (GST)-fusion protein using the Bac-to-Bac™ system (GIBCO BRL) of recombinant baculovirus generation. Virus containing media is collected from the transfected cell culture and used for infection to increase its titer. Virus containing media obtained after two rounds of infection is used for large-scale protein expression. Cell extracts are prepared and loaded onto a glutathione-Sepharose (Pharmacia) column. After washing, the GST-tagged proteins are then eluted with a glutathione-containing buffer. Purified protein is stored at −70° C. in elution buffer. Tyrosine protein kinase assays with purified GST-IGF-1R and GST-ins-R are carried in a final volume of 30 μl containing 20 mM Tris-HCl, pH 7.6, 10 mM MgCl2, 0.01 mM Na3VO4, 1% DMSO, 1 mM DTT, 3 μg/ml poly(Glu,Tyr) 4:1 and 10 μM ATP (γ-[^33P]-ATP 0.1 μCi). The assay is performed in 96-well plates at ambient temperature for 20 min and terminated by addition of 25 μl 0.05 M EDTA pH 7.0. An aliquot of 40 μl is spotted with a multichannel dispenser on Whatman P81 membranes mounted in a Millipore Microtiter filter manifold connected to a low vacuum source. After elimination of liquid, the membrane is transferred to a sequence of 4 washing baths containing 0.5% H3PO4 and one with EtOH (shaking incubation for 10 min each), dried, mounted onto a Hewlett Packard TopCount manifold added 10 μl Microscint® and counted. Compounds of formula (I) show up to 90% inhibition of Ins-R at 10,000 nM, preferably between 60-90% inhibition. The inhibition of Tek can be determined as follows: The procedure of the expression, purification and assay these kinases has been described. Fabbro et al., Pharmacol. Ther. 82(2-3) 293-301 (1999). In brief, the glutathione S-transferase (GST) gene from the pAcG1 vector (Pharmingen) is excised with EcoRV and EcoRI and inserted into the cloning site of the Fast-Bac baculoviral vector (GIBCO) creating a 5530 bp vector with N-terminal cloning sites derived from the pAcG1 fusion vector (FBG0). The C-terminal cloning site may be any cloning site (from the Fast-Bac vector) downstream of the N-terminal cloning site used. N-terminally GST-fused (pAcG1, Pharmingen) KDR, Flt-1, Flk-1, Tek and PDGFR-β kinase domains are obtained from ProQinase, Freiburg, Germany. Tek is recloned into the FBG1 vector by EcoRI excision and ligation into EcoRI digested FBG1 (FBG1-Tek). The coding sequences for the whole cytoplasmic domain of c-Kit (aa 544-976) and c-Fms (aa 538-972) are amplified by PCR from human uterus and from human bone marrow cDNA libraries (Clontech), respectively. The amplified DNA fragments are fused to GST by cloning them into FBG1 as BamHI-EcoRI insertions, to yield FBG1-c-Kit and FBG1-c-Fms. Tek is recloned into the FBG0 transfer vector by EcoRI excision and ligation into EcoRI digested FBG0 (FBG-Tie2/Tek). FGFR-1 and c-met kinase domains are obtained by PCR from human A431 cells. N-terminal primers contain an overhanging EcoRI site, while C-terminal primers contain a XhoI site to aid cloning into the transfer vectors. After digestion of both the PCR fragments and FBG0 the cleavage products are gel-purified and ligated together to form the kinase constructs (FBG-Met, FBG-FGFR-1).

Chain of c-Src kinase (P12931 whole entry): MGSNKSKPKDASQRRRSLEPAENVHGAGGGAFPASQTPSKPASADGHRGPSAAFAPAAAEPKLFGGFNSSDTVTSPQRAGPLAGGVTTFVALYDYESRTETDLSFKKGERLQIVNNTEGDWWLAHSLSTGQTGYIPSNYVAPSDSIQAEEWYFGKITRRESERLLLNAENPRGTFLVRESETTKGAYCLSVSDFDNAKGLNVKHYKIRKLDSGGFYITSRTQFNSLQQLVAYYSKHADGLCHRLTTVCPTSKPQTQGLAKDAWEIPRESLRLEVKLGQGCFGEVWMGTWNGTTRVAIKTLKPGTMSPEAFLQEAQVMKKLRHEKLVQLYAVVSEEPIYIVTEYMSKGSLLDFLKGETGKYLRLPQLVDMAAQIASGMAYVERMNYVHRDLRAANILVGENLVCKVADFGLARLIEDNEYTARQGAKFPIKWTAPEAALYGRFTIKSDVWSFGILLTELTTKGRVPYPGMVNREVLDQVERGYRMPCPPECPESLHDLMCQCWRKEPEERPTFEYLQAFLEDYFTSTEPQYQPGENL

| IC50 [1] | IC50 [2] | IC50 [3] | Compound |
| --- | --- | --- | --- |
| < 1000 nM | > 10000 nM | > 10000 nM | COc1ccc(-c2cnn3c(N)c(-c4ccc(F)c(Cl)c4)c(C)nc23)cc1OC [Example 94, 6-(3-Chloro-4-fluoro-phenyl)-3-(3,4-dimethoxy-phenyl)-5-methyl-pyrazolo[1,5-a]pyrimidin-7-ylamine] |
| < 1000 nM | < 1000 nM | > 10000 nM | Cc1nc2c(-c3cccc(N4C[C@@H](C)O[C@@H](C)C4)c3)cnn2c(N)c1-c1cccc(Cl)c1 [Example 89, 6-(3-Chloro-phenyl)-3-[3-((2R,6S)-2,6-dimethyl-morpholin-4-yl)-phenyl]-5-methyl-pyrazolo[1,5-a]pyrimidin-7-ylamine] |
| < 1000 nM | < 1000 nM | > 10000 nM | Cc1nc2c(-c3cccc(N4CCN(CCO)CC4)c3)cnn2c(N)c1-c1cccc(Cl)c1 [Example 90, 2-(4-{3-[7-Amino-6-(3-chloro-phenyl)-5-methyl-pyrazolo[1,5-a]pyrimidin-3-yl]-phenyl}-piperazin-1-yl)-ethanol] |
| < 1000 nM | < 1000 nM | > 10000 nM | Cc1nc2c(-c3cccc(N4CCN(C)CC4)c3)cnn2c(N)c1-c1cccc(Cl)c1 [Example 72, 6-(3-Chloro-phenyl)-5-methyl-3-[3-(4-methyl-piperazin-1-yl)-phenyl]-pyrazolo[1,5-a]pyrimidin-7-ylamine] |
| < 1000 nM | < 1000 nM | > 10000 nM | Cc1nc2c(-c3cccc(N4CCN(CCO)CC4)c3)cnn2c(N)c1-c1ccc(F)c(Cl)c1 [Example 100, 2-(4-{3-[7-Amino-6-(3-chloro-4-fluoro-phenyl)-5-methyl-pyrazolo[1,5-a]pyrimidin-3-yl]-phenyl}-piperazin-1-yl)-ethanol] |
| < 1000 nM | < 1000 nM | > 10000 nM | Cc1nc2c(-c3cccc(N4CCN(CCO)CC4)c3)cnn2c(N)c1-c1ccc(F)cc1 [Example 97, 2-(4-{3-[7-Amino-6-(4-fluoro-phenyl)-5-methyl-pyrazolo[1,5-a]pyrimidin-3-yl]-phenyl}-piperazin-1-yl)-ethanol] |
| < 1000 nM | < 1000 nM | > 10000 nM | Cc1nc2c(-c3ccc(N4CCN(C)CC4)cc3)cnn2c(N)c1-c1cccc(Cl)c1 [Example 73, 6-(3-Chloro-phenyl)-5-methyl-3-[4-(4-methyl-piperazin-1-yl)-phenyl]-pyrazolo[1,5-a]pyrimidin-7-ylamine] |
| < 1000 nM | < 1000 nM | > 10000 nM | COc1ccc(-c2cnn3c(N)c(-c4ccc(F)c(F)c4)c(C)nc23)cc1OC [Example 99, 6-(3,4-Difluoro-phenyl)-3-(3,4-dimethoxy-phenyl)-5-methyl-pyrazolo[1,5-a]pyrimidin-7-ylamine] |
| < 1000 nM | < 1000 nM | > 10000 nM | Cc1nc2c(-c3ccc(N4CCN(C)CC4)cc3)cnn2c(N)c1-c1ccc(F)c(Cl)c1 [Example 83, 6-(3-Chloro-4-fluoro-phenyl)-5-methyl-3-[4-(4-methyl-piperazin-1-yl)-phenyl]-pyrazolo[1,5-a]pyrimidin-7-ylamine] |
| < 1000 nM | < 1000 nM | < 1000 nM | Cc1nc2c(-c3cccc(N4CCN(C5CCN(C)CC5)CC4)c3)cnn2c(N)c1-c1cccc(Cl)c1 [Example 81, 6-(3-Chloro-phenyl)-5-methyl-3-{3-[4-(1-methyl-piperidin-4-yl)-piperazin-1-yl]-phenyl}-pyrazolo[1,5-a]pyrimidin-7-ylamine] |
| < 1000 nM | < 1000 nM | > 10000 nM | Cc1nc2c(-c3cccc(N4CCC(N5CCCC5)CC4)c3)cnn2c(N)c1-c1ccc(F)cc1 [Example 103, 6-(4-Fluoro-phenyl)-5-methyl-3-[3-(4-pyrrolidin-1-yl-piperidin-1-yl)-phenyl]-pyrazolo[1,5-a]pyrimidin-7-ylamine] |
| < 1000 nM | < 1000 nM | > 10000 nM | Cc1nc2c(-c3cccc(N4CCN(C)CC4)c3)cnn2c(N)c1-c1cccc(Br)c1 [Example 84, 6-(3-Bromo-phenyl)-5-methyl-3-[3-(4-methyl-piperazin-1-yl)-phenyl]-pyrazolo[1,5-a]pyrimidin-7-ylamine] |
| < 1000 nM | < 1000 nM | > 10000 nM | COc1ccc(-c2cnn3c(N)c(-c4cccc(Cl)c4)c(C)nc23)cc1OC [Example 93, 6-(3-Chloro-phenyl)-3-(3,4-dimethoxy-phenyl)-5-methyl-pyrazolo[1,5-a]pyrimidin-7-ylamine] |
| < 1000 nM | < 1000 nM | > 10000 nM | Cc1nc2c(-c3cccc(N4CCN(C)CC4)c3)cnn2c(N)c1-c1ccc(F)c(F)c1 [Example 98, 6-(3,4-Difluoro-phenyl)-5-methyl-3-[3-(4-methyl-piperazin-1-yl)-phenyl]-pyrazolo[1,5-a]pyrimidin-7-ylamine] |
| > 10000 nM | < 1000 nM | > 10000 nM | CN1CCN(c2cccc(-c3cnn4c(N)c(Cc5ccccc5)cnc34)c2)CC1 [Example 91, 6-Benzyl-3-[3-(4-methyl-piperazin-1-yl)-phenyl]-pyrazolo[1,5-a]pyrimidin-7-ylamine] |
| < 1000 nM | < 1000 nM | > 10000 nM | Cc1nc2c(-c3cccc(N4CCN(CCO)CC4)c3)cnn2c(N)c1-c1ccc(F)c(F)c1 [Example 101, 2-(4-{3-[7-Amino-6-(3,4-difluoro-phenyl)-5-methyl-pyrazolo[1,5-a]pyrimidin-3-yl]-phenyl}-piperazin-1-yl)-ethanol] |
